Reference: ChEMBL document CHEMBL3867482, “Design and synthesis of water soluble β-aminosulfone analogues of SCH 900229 as γ-secretase inhibitors” (Bioorg Med Chem Lett, 2016)

Key:
Mus musculus [1] = experiment: Antialzheimer activity in B6C3F1 mouse assessed as amyloid beta 40 levels in plasma at 30 mg/kg, po after 24 hrs; assay type: functional
Cytochrome P450 2D6 = Cytochrome P450 2D6 (Homo sapiens, UniProt P10635); experiment: Inhibition of CYP2D6 in human liver microsomes after 30 secs by LC/MS/MS analysis; assay type: ADME
[2] = Ratio of drug level in brain to plasma in mouse at 6 hrs; assay type: ADME, organism-based; details: brain and plasma, read-out: BPR
Cytochrome P450 3A4 [3] = biological target: T1, Cytochrome P450 3A4 (Homo sapiens, UniProt P08684); experiment: Inhibition of CYP3A4 in human liver microsomes preincubated for 30 mins after 30 secs by LC/MS/MS analysis; assay type: ADME
Mus musculus [4] = experiment: Antialzheimer activity in B6C3F1 mouse assessed as reduction in amyloid beta 40 levels in cortex at 30 mg/kg, po after 12 hrs; assay type: functional; parameters: scale not given: the % may be the effect or the level left
Mus musculus [5] = experiment: Antialzheimer activity in B6C3F1 mouse assessed as amyloid beta 40 level in cortex at 10 mg/kg, po administered as single dose after 3 hrs relative to control; assay type: functional
[6] = Clearance in rat hepatocytes assessed per million cells by HPLC/atmospheric pressure chemical ionization/MS analysis; assay type: ADME, cell-based, Hepatocyte; details: read-out: CLH
[7] = Inhibition of gamma-secretase in HEK293 cell membranes expressing human APP Swedish/London double mutant assessed as reduction in amyloid beta 40 formation after 1 hr by electrochemiluminescence based immunoassay
hERG (KCNH2) [8] = biological target: T2, hERG (KCNH2) (Homo sapiens, UniProt Q12809); experiment: Inhibition of human ERG at 10 uM by thallium flux assay
[9] = AUC (0 to 6 hrs) in mouse at 10 mg/kg, po by LC/MS/MS analysis; assay type: ADME, organism-based; parameters: time < 6 hr, dose 10 mg/kg, route oral; details: in vivo
[10] = Clearance in dog hepatocytes assessed per million cells by HPLC/atmospheric pressure chemical ionization/MS analysis; assay type: ADME, cell-based, Canis lupus familiaris, Hepatocyte; details: read-out: CLH
[11] = Drug metabolism in rat assessed as beta-elemination; assay type: ADME
hERG (KCNH2) [12] = biological target: T2, hERG (KCNH2); experiment: Inhibition of human ERG at 1 uM by Thallium flux assay
Cytochrome P450 2C9 = Cytochrome P450 2C9 (Homo sapiens, UniProt P11712); experiment: Inhibition of CYP2C9 in human liver microsomes after 30 secs by LC/MS/MS analysis; assay type: ADME
[13] = Drug metabolism in rat assessed as N-demethylation; assay type: ADME
[14] = Dissociation constant, pKa of the compound; assay type: physicochemical
Cytochrome P450 3A4 [15] = biological target: T1, Cytochrome P450 3A4; experiment: Inhibition of CYP3A4 in human liver microsomes after 30 secs by LC/MS/MS analysis; assay type: ADME
[16] = Clearance in monkey hepatocytes assessed per million cells by HPLC/atmospheric pressure chemical ionization/MS analysis; assay type: ADME, cell-based, Macaca mulatta, Hepatocyte; details: rhesus monkey, read-out: CLH
Mus musculus [17] = experiment: Antialzheimer activity in B6C3F1 mouse assessed as reduction in amyloid beta 40 levels in cortex at 30 mg/kg, po after 6 hrs; assay type: functional; parameters: scale not given: the % may be the effect or the level left
Mus musculus [18] = experiment: Antialzheimer activity in B6C3F1 mouse assessed as reduction in amyloid beta 40 levels in plasma at 30 mg/kg, po after 6 hrs; assay type: functional; parameters: scale not given: the % may be the effect or the level left
[19] = Clearance in human hepatocytes assessed per million cells by HPLC/atmospheric pressure chemical ionization/MS analysis; assay type: ADME, cell-based, Hepatocyte; details: read-out: CLH
Mus musculus [20] = experiment: Antialzheimer activity in B6C3F1 mouse assessed as amyloid beta 40 level in plasma at 10 mg/kg, po administered as single dose after 3 hrs relative to control; assay type: functional
Mus musculus [21] = experiment: Antialzheimer activity in B6C3F1 mouse assessed as reduction in amyloid beta 40 levels in cortex at 30 mg/kg, po after 24 hrs; assay type: functional; parameters: scale not given: the % may be the effect or the level left
Mus musculus [22] = experiment: Antialzheimer activity in B6C3F1 mouse assessed as reduction in amyloid beta 40 levels in plasma at 30 mg/kg, po after 12 hrs; assay type: functional; parameters: scale not given: the % may be the effect or the level left
[23] = Kinetic solubility of compound; assay type: physicochemical; details: read-out: Kinetic_solubility

T1 sequence (P08684 whole entry): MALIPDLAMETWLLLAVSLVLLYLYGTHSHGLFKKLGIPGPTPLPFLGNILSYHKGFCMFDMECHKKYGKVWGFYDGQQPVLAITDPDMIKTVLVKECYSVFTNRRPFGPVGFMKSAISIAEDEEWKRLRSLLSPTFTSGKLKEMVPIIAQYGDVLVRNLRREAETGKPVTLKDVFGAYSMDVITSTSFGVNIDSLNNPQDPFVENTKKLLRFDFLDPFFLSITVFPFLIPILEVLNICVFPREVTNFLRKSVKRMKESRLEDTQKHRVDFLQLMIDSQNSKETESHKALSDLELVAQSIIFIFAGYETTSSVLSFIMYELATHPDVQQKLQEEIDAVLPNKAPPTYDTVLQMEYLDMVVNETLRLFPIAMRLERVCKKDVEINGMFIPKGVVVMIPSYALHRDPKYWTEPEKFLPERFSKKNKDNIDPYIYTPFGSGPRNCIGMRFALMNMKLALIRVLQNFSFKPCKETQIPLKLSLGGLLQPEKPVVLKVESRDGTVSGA
Chain of Cytochrome P450 2C9 (P11712 whole entry): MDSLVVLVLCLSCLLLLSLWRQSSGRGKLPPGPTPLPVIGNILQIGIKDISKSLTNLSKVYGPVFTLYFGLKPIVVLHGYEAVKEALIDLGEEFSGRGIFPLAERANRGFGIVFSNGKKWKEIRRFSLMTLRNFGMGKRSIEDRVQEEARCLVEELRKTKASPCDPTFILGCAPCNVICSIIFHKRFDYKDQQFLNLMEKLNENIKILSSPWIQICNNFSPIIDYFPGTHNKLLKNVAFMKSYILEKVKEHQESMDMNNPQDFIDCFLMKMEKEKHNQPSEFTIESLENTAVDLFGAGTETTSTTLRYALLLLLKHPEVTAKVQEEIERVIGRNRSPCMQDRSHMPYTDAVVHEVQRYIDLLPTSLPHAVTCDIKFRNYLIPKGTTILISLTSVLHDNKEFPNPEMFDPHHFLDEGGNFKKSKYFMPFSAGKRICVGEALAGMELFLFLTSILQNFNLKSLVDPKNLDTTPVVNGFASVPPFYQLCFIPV
T2 sequence (Q12809 whole entry): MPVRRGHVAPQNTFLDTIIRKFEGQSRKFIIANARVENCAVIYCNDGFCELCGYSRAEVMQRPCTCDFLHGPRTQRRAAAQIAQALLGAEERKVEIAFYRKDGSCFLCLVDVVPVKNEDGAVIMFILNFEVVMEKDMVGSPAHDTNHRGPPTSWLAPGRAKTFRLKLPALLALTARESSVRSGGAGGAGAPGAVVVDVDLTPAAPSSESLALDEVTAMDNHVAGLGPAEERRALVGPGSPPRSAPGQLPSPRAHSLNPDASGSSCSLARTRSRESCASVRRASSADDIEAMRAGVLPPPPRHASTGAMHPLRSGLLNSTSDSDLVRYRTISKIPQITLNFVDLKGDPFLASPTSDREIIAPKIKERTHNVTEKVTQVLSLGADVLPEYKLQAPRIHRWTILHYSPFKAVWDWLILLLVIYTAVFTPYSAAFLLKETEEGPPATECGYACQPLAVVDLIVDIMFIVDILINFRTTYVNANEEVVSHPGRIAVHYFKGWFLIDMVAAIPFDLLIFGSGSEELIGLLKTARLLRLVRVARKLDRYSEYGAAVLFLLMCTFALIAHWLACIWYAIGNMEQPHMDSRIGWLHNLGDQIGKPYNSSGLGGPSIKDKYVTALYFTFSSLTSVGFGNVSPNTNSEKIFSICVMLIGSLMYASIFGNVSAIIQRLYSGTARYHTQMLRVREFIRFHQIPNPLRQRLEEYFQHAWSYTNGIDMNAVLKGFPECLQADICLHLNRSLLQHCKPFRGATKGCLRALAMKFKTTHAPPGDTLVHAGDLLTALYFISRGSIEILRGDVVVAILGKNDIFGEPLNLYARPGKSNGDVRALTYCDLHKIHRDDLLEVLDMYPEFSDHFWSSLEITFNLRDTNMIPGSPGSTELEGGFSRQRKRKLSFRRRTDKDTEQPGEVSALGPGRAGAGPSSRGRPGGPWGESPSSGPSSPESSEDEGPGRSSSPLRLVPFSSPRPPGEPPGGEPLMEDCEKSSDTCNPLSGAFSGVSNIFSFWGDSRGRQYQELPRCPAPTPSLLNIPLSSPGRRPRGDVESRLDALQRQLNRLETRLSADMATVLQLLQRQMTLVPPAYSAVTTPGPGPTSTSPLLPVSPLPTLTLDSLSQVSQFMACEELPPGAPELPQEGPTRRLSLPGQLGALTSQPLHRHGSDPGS
Chain of Cytochrome P450 2D6 (P10635 whole entry): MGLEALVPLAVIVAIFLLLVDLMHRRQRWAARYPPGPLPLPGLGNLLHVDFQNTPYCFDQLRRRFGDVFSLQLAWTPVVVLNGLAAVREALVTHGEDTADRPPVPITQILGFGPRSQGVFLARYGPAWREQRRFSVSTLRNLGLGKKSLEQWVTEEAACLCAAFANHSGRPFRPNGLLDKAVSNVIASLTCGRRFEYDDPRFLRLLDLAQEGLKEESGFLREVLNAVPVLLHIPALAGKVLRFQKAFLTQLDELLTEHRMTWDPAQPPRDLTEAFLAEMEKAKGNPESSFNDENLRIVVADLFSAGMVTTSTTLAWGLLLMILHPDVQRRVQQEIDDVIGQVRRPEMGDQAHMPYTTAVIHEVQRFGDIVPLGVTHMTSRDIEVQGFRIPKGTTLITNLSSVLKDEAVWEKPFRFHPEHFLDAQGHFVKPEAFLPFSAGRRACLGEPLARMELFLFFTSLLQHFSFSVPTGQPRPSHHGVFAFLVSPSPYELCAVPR

Row | IC50 (Cytochrome P450 2D6) | Kp at 6 h [2] | IC50 (Cytochrome P450 3A4 [3]) | hepatocyte CLint [6] | IC50 [7] | AUC(0-t) at 6 h [9] | hepatocyte CLint [10] | IC50 (Cytochrome P450 2C9) | IC50 (Cytochrome P450 3A4 [15]) | hepatocyte CLint [16] | hepatocyte CLint [19] | SMILES | Activity (Mus musculus [5]) | Activity (Mus musculus [20]) | also measured
1 | > 20 µM | 0.4 | 8.4 µM | 22.3 µL/min/1e6 cells | 0.0041 µM | 0.532 µM·h | 11.5 µL/min/1e6 cells | > 20 µM | > 20 µM | 40.5 µL/min/1e6 cells | 17.3 µL/min/1e6 cells | CNCCS(=O)(=O)CC[C@@H]1OCC[C@@]2(S(=O)(=O)c3ccc(Cl)cc3)c3c(F)ccc(F)c3OC[C@@H]12 | -61% | -44% | Activity (Mus musculus [1]): 50%; Activity (Mus musculus [4]): 66%; inhibition at 10 µM (hERG (KCNH2) [8]): 21%; Drug metabolism [11]: Metabolite_Notdetected; inhibition at 1 µM (hERG (KCNH2) [12]): 1%; Drug metabolism [13]: Metabolite_Notdetected; pKa [14]: 7.7; Activity (Mus musculus [17]): 73%; Activity (Mus musculus [18]): 93%; Activity (Mus musculus [21]): 37%; Activity (Mus musculus [22]): 35%
2 | > 20 µM | 1 | > 20 µM | 25.8 µL/min/1e6 cells | 0.0022 µM | 0.477 µM·h | 23.5 µL/min/1e6 cells | > 20 µM | > 20 µM | 55.1 µL/min/1e6 cells | 20.4 µL/min/1e6 cells | CNC(C)(C)CCS(=O)(=O)CC[C@@H]1OCC[C@@]2(S(=O)(=O)c3ccc(Cl)cc3)c3c(F)ccc(F)c3OC[C@@H]12 | -33% | -51% | solubility kinetic [23]: > 20 µM
